The source of these data is patent EP4259152B1, “CEMTIRESTAT DISULFIDE, PRODRUG OF ALDO-KETO REDUCTASE INHIBITOR, PREPARATION, PHARMACEUTICAL COMPOSITION AND USE THEREOF” (Centrum Experimentálnej Medicíny SAV, v.v.i., priority 2020, dated 2022).

Read-outs that look alike come from different tables or passages of the source.

Data set [1] addresses T1, AKR1B10 (Homo sapiens, UniProt O60218). As to conditions: Stefek et al.; J. Med Chem. 58: 2649-57, 2015; cited from earlier work.
Data set [2] is described as follows: Test C: Determination of the distribution ratio in the buffer/octan-1-ol system (shake-flask method). In kind it is physicochemical. The conditions noted are these: for D (distribution ratio in the buffer/octan-1-ol system): 100 µM, room temperature, mean ± SD, n=3. The method, then: The partition ratio in the buffer/1-octanol system (system name octan-1-ol), defined as the equilibrium ratio of the total solute concentration in the organic phase to the total solute concentration in the aqueous phase, was determined by the shake-flask method at room temperature. Octan-1-ol saturated with the desired buffer was used as the organic phase for the determination. […] The aqueous solution was shaken with octan-1-ol (20 mL) for 3 hours. Subsequently, the phases were separated in a separatory funnel and the concentration of the solute was determined spectrophotometrically in both phases by means of a calibration curve.

Data set [3] in a line: Test A: Reduction of disulfide of formula I by GSH (cleavage kinetics to form cemtirestat of formula II, absorbance at 302 nm). In kind it is physicochemical. The conditions noted are these: mean ± SD, n=3; for Final degree of disulfide of formula I reduction: calculated after reaching the maximum in the 60th second, disulfide 50 µM, pH 7.4, 37 °C; for Initial rate of cemtirestat of formula II formation: disulfide of formula I 50 µM, 20 mM phosphate buffer (pH 7.4) at 37 °C.

For data set [4], the target named is T1, AKR1B10. The data set is described as follows: Inhibition of aldo-keto reductase AKR1B10. It counts as biochemical. The conditions noted are these: meaning of 'does not interact per se'.
A further data set deals with T2, ALR2 (Rattus norvegicus, UniProt P07943).
T2 construct: The ALR2 enzyme from rat lenses was isolated by the method of Hayman and Kinoshit; from tissue; host or cells: rat eye lenses
The data set is described as follows: Test B: Inhibition of ALR2 by disulfide of formula I in the presence of GSH (NADPH consumption at 340 nm). In kind it is biochemical. As to conditions: disulfide of formula I 100 µM, 67 mM phosphate buffer (pH 7.4), 37 °C, measured 2 min after GSH addition. The procedure: Preparation ofALR2. The ALR2 enzyme from rat lenses was isolated by the method of Hayman and Kinoshit (J. Biol. Chem. 240: 877-882, 1965). The homogenate was centrifuged at 10,000 g at 0-4 °C for 20 min. The supernatant was precipitated with saturated ammonium sulfate solution gradually at 40 %, 50 % and finally at 75 % saturation. After the first two precipitations, the supernatant was used. The sediment from the last step, containing ALR2 activity, was resuspended in 75% ammonium sulfate and stored in smaller aliquots in a liquid nitrogen container.
Enzyme test. ALR2 activity was measured spectrophotometrically (Stefek et al.; Bioorg. Med Chem. 16: 4908-4920, 2008) by determining NADPH consumption at 340 nm and expressed as a decrease in optical density (O.D.) / s / mg protein. The reaction mixture contained 4.67 mM D,L-glyceraldehyde as substrate, 0.11 mM NADPH in 67 mM phosphate buffer (pH 7.4), GSH at the desired concentration and 0.05 ml of enzyme preparation a total volume of 1.5 ml. The reference (blank) sample contained all of the above components except D,L-glyceraldehyde substrate and was used to correct for NADPH oxidation unrelated to substrate reduction. Enzyme catalysis was initiated by the addition of D,L-glyceraldehyde and the reaction was monitored for 4 minutes after an initial 1 minute period at 37 °C. The enzyme activity was adjusted by diluting the enzyme preparations with distilled water so that 0.05 ml of the preparation gave an average reaction rate for the control samples in the range of 0.020 ± 0.005 absorbance units / min. The effect of inhibitor on enzyme activity was determined by adding a stock solution of inhibitor in DMSO to the reaction mixture at a final concentration of 100 µM so that the final DMSO concentration was 1%. An inhibitor with the same concentration was added to the reference sample. Enzyme activity was started 2 min after the addition of GSH to the reaction mixture by adding D,L-glyceraldehyde used as a substrate, and I(%) values were determined from the measured absorbance decrease values.

A further data set deals with AKR1B1 (Homo sapiens, UniProt P15121). The data set is described as follows: Inhibition of aldo-keto reductase AKR1B1. It counts as biochemical.

T1 sequence (O60218 whole entry, species assumed): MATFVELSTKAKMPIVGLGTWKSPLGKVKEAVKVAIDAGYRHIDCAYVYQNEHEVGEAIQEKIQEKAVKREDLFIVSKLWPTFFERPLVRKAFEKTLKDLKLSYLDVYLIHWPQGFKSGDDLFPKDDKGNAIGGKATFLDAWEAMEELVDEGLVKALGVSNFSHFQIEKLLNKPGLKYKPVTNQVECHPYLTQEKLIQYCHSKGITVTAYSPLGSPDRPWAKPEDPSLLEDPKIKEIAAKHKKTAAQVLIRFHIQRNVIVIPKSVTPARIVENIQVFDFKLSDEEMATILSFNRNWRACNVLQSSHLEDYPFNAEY

`O=C(O)Cn1c2ccccc2c2nnc(S)nc21` [Cemtirestat of formula II, 2-(3-thioxo-2,3-dihydro-5H-[1,2,4]triazino[5,6-b]indol-5-yl)acetic acid]: the half-maximal inhibitory concentration (IC50) on AKR1B10 [1] was 3.69 ± 0.53 µM.

In the case of `O=C(O)Cn1c2ccccc2c2nnc(SSc3nnc4c5ccccc5n(CC(=O)O)c4n3)nc21` [Disulfide of formula I, 2,2'-(disulfanediylbis(5H-[1,2,4]triazino[5,6-b]indole-3,5-diyl))diacetic acid], the “water/octanol distribution ratio compared to cemtirestat of formula II” value in data set [2] (acidic environment at pH 4.6, fold higher than cemtirestat of formula II) is listed as roughly 4 fold. The “D (distribution ratio in the buffer/octan-1-ol system)” value in data set [2] (pH 4.6, acetate buffer (0.1M) + 0.15 M KCl) came out at 0.1136 ± 0.0022; in data set [2] (pH 7.4, phosphate buffer (0.1M) + 0.15 M KCl) it was 0.0095 ± 0.0019. Besides, the results for the “Final degree of disulfide of formula I reduction” value in data set [3] (GSH 25 µM), in data set [3] (GSH 50 µM) and in data set [3] (GSH 100 µM) were 39.68 ± 1.59%, 67.70 ± 3.72% and 85.16 ± 5.11%, respectively. Further, the “Initial rate of cemtirestat of formula II formation” value in data set [3] (GSH 25 µM) stood at 4.46 ± 1.68 nmol/mL/s; in data set [3] (GSH 50 µM), 7.30 ± 1.46 nmol/mL/s; in data set [3] (GSH 100 µM), 9.83 ± 2.09 nmol/mL/s. Besides, the half-inhibitory concentration (IC50) on AKR1B10 [4] and on AKR1B1 was greater than 100 µM throughout. The inhibition at 100 µM at ALR2 (pH 7.4, GSH added 0 µM) is less than 1%; on ALR2 (pH 7.4, GSH added 5 µM) it was less than 1%; at ALR2 (pH 7.4, GSH added 10 µM), 8.9 ± 0.6%; on ALR2 (pH 7.4, GSH added 20 µM), 12.4 ± 1.4%; at ALR2 (pH 7.4, GSH added 40 µM), 16.1 ± 6.9%; on ALR2 (pH 7.4, GSH added 100 µM) it was 72.6 ± 9.1%. Moreover, the inhibition at 100 µM on ALR2 (pH 7.4, GSH added 1000 µM) was found to be 94 ± 1.6%; on ALR2 (pH 7.4, GSH added 5000 µM), 91.1 ± 1.5%.

What is called IC50 is the point on the concentration scale where inhibition reaches its midpoint. Usually inhibition stands for the drop in the measured response relative to a control, in per cent.
